Molecular target: T1, Mitogen-activated protein kinase kinase kinase 5 (Homo sapiens, UniProt Q99683)
T1 sequence (Q99683 whole entry): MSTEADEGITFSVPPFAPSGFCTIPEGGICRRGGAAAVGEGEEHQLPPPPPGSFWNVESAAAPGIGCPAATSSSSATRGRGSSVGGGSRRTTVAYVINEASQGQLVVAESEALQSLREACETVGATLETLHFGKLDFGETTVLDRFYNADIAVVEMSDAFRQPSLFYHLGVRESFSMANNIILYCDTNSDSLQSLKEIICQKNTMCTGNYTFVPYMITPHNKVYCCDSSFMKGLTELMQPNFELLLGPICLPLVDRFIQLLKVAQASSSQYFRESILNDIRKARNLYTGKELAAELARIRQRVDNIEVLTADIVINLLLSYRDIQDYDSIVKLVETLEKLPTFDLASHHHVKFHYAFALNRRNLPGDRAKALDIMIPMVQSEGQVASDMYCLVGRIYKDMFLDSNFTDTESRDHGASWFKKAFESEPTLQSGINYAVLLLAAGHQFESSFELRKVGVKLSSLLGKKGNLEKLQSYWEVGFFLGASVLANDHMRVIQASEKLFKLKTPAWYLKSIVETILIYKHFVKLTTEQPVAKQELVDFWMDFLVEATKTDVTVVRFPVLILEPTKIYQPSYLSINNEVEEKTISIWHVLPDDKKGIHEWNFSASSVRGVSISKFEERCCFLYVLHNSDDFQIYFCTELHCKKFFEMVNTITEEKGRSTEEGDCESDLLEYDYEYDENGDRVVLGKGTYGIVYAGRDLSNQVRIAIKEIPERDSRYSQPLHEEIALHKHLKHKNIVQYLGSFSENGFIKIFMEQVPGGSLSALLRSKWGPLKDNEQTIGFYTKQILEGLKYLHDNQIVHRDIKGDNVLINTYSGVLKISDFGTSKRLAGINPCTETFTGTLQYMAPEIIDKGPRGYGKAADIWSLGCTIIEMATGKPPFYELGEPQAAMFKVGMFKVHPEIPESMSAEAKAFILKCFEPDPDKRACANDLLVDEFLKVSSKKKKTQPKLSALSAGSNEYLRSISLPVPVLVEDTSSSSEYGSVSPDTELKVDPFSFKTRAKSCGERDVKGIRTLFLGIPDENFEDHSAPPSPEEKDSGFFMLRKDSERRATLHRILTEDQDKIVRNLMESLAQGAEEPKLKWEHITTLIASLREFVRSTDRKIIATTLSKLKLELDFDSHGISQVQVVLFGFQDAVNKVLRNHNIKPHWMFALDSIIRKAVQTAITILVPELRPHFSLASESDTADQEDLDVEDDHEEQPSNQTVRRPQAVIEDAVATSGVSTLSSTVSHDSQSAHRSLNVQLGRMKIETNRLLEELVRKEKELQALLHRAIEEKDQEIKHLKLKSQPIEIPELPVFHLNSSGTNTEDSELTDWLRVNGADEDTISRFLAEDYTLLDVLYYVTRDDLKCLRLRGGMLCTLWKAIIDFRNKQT
Experiment: HTRF KinEASE Assay : ASK1 was purchased from Thermofisher (Catalogue #PV4011), ATP was purchased from Sigma (Catalogue #A7699), HTRF® KinEASE Assay System was obtained from Cisbio (Bedford, Mass.). ½ Area plate was purchased from Perkin Elmer (Catalogue ##6005560). HTRF® KinEASE-STK is a generic method for measuring serine/threonine kinase activities using a time-resolved fluorescence resonance energy transfer (TR-FRET) immunoassay. The IC50 value for each compound was determined in the presence of compound (various concentration from 0 to 10 μM) and a fixed amount of ATP and peptide substrates. The test compound, 1 μM STK3 peptide substrate, and […] are incubated with kinase reaction buffer containing 50 mM HEPES Ph 7.5, 0.01% BRIJ-35, 10 mM MgCl2, and 1 mM EGTA for 30 minutes. 100 μM ATP is added to start kinase reaction and incubated for 3 hours. The STK3-antibody labeled with Eu3+-Cryptate and 125 nM streptavidin-XL665 are mixed in a single addition with stop reagents provided by the Cisbio kit used to stop the kinase reaction. Fluorescence is detected using an Envision Multilabeled 2014 reader from PerkinElmer. The Fluorescence is measured at 615 nm (Cryptate) and 665 nm (XL665) and a ratio of 665 nm/615 nm is calculated for each well. The resulting TR-FRET is proportional to the phosphorylation level. Staurosporine was used as the positive control. IC50 was determined by Xlfit 5.3.

Row | Structure (SMILES) | IC50
1 | COc1cc2c(cc1C(=O)Nc1cccc(-c3nncn3[C@H](C)CO)n1)CN(C(=O)OC(C)C)CC2 | 1.25 to 10 nM
2 | COc1cc2c(cc1C(=O)Nc1cccc(-c3nnnn3C(C)C)n1)CN(C(C)C)CC2 | 1.25 to 10 nM
3 | C[C@H](CO)n1cnnc1-c1cccc(NC(=O)c2cc3c(cc2F)CCN(C(=O)OC2CC2)C3)n1 | 1.25 to 10 nM
4 | CCNC(=O)N1CCc2cc(OC)c(C(=O)Nc3cccc(-c4nnnn4[C@H](C)CO)n3)cc2C1 | 1.25 to 10 nM
5 | CC(C)COC(=O)N1CCc2cc(F)c(C(=O)Nc3cccc(-c4nncn4[C@H](C)CO)n3)cc2C1 | 1.25 to 10 nM
6 | COc1cc2c(cc1C(=O)Nc1cccc(-c3nnnn3[C@H](C)CO)n1)CN(C(=O)C(C)(C)CO)CC2 | 1.25 to 10 nM
7 | COc1cc2c(cc1C(=O)Nc1cccc(-c3nncn3C(C)C)n1)CN(C(C)C)CC2 | 1.25 to 10 nM
8 | COc1cc2c(cc1C(=O)Nc1cccc(-c3nnnn3[C@H](C)CO)n1)CN(C(=O)OCC(F)(F)F)CC2 | 1.25 to 10 nM
9 | COc1cc2c(cc1C(=O)Nc1cccc(-c3nncn3C(C)C)n1)CN(C(=O)C(C)(C)C)CC2 | 1.25 to 10 nM
10 | C[C@H](CO)n1cnnc1-c1cccc(NC(=O)c2cc3c(cc2F)CCN(C(=O)c2ccc(F)cc2)C3)n1 | 1.25 to 10 nM
11 | CC(C)n1cnnc1-c1cccc(NC(=O)c2cc3c(cn2)CCN(C(=O)c2ccc(F)cc2)C3)n1 | 1.25 to 10 nM
12 | COc1cc2c(cc1C(=O)Nc1cccc(-c3nnnn3[C@H](C)CO)n1)CN(C(=O)c1cn(C3CC3)cn1)CC2 | 1.25 to 10 nM
13 | CCOC(=O)N1CCc2cc(OC)c(C(=O)Nc3cccc(-c4nnnn4[C@H](C)CO)n3)cc2C1 | 1.25 to 10 nM
14 | COc1cc2c(cc1C(=O)Nc1cccc(-c3nnnn3[C@H](C)CO)n1)CN(S(=O)(=O)CCC(F)(F)F)CC2 | 1.25 to 10 nM
15 | COc1cc2c(cc1C(=O)Nc1cccc(-c3nncn3C(C)C)n1)CN(S(=O)(=O)C1CC1)CC2 | 1.25 to 10 nM
16 | CCOC(=O)N1CCc2cnc(C(=O)Nc3cccc(-c4nncn4C(C)C)n3)cc2C1 | 1.25 to 10 nM
17 | COc1cc2c(cc1C(=O)Nc1cccc(-c3nncn3[C@H](C)CO)n1)CN(C(=O)OCC(F)(F)F)CC2 | 1.25 to 10 nM
18 | COc1cc2c(cc1C(=O)Nc1cccc(-c3nncn3[C@H](C)CO)n1)CN(C(=O)c1ccc(F)cc1)CC2 | 1.25 to 10 nM
19 | CC(C)n1cnnc1-c1cccc(NC(=O)c2cc3c(cn2)CCN(S(=O)(=O)c2ccccc2)C3)n1 | 1.25 to 10 nM
20 | C[C@H](CO)n1cnnc1-c1cccc(NC(=O)c2cc3c(cc2F)CCN(C(=O)N(C)C)C3)n1 | 1.25 to 10 nM

Row | Structure (SMILES) | IC50
21 | COc1cc2c(cc1C(=O)Nc1cccc(-c3nncn3C(C)C)n1)CN(S(=O)(=O)CCC(F)(F)F)CC2 | 1.25 to 10 nM
22 | COc1cc2c(cc1C(=O)Nc1cccc(-c3nnnn3[C@H](C)CO)n1)CN(C(=O)c1ccc(F)cc1)CC2 | < 1.25 nM
23 | COc1cc2c(cc1C(=O)Nc1cccc(-c3nnnn3C(C)C)n1)CN(C(=O)OC(C)C)CC2 | < 1.25 nM
24 | C[C@H](CO)n1cnnc1-c1cccc(NC(=O)c2cc3c(cn2)CCN(Cc2ccccn2)C3)n1 | < 1.25 nM
25 | CC(C)OC(=O)N1CCc2cc(F)c(C(=O)Nc3cccc(-c4nncn4[C@H](C)CO)n3)cc2C1 | < 1.25 nM
26 | CCNC(=O)N1CCc2cnc(C(=O)Nc3cccc(-c4nncn4[C@H](C)CO)n3)cc2C1 | 1.25 to 10 nM
27 | COc1cc2c(cc1C(=O)Nc1cccc(-c3nnnn3[C@H](C)CO)n1)CN(C)CC2 | 1.25 to 10 nM
28 | CC(C)n1cnnc1-c1cccc(NC(=O)c2cc3c(cn2)CCN(C(=O)N2CCCC2)C3)n1 | < 1.25 nM
29 | CCOC(=O)N1CCc2cc(OC)c(C(=O)Nc3cccc(-c4nncn4[C@H](C)CO)n3)cc2C1 | < 1.25 nM
30 | COc1cc2c(cc1C(=O)Nc1cccc(-c3nncn3[C@H](C)CO)n1)CN(C(C)C)CC2 | < 1.25 nM
31 | CC(C)CN1CCc2cnc(C(=O)Nc3cccc(-c4nncn4[C@H](C)CO)n3)cc2C1 | 1.25 to 10 nM
32 | CCNC(=O)N1CCc2cc(OC)c(C(=O)Nc3cccc(-c4nnnn4C(C)C)n3)cc2C1 | < 1.25 nM
33 | COc1cc2c(cc1C(=O)Nc1cccc(-c3nncn3[C@H](C)CO)n1)CN(S(=O)(=O)C1CC1)CC2 | 1.25 to 10 nM
34 | CC(C)n1cnnc1-c1cccc(NC(=O)c2cc3c(cc2F)CCN(c2ncccn2)C3)n1 | < 1.25 nM
35 | COc1cc2c(cc1C(=O)Nc1cccc(-c3nnnn3C(C)C)n1)CN(S(=O)(=O)C1CC1)CC2 | < 1.25 nM
36 | COc1cc2c(cc1C(=O)Nc1cccc(-c3nncn3[C@H](C)CO)n1)CN(S(=O)(=O)CCC(F)(F)F)CC2 | < 1.25 nM
37 | C[C@H](CO)n1cnnc1-c1cccc(NC(=O)c2cc3c(cn2)CCN(C(=O)N2CCCC2)C3)n1 | 1.25 to 10 nM
38 | C[C@H](CO)n1cnnc1-c1cccc(NC(=O)c2cc3c(cc2F)CCN(C(=O)N2CCCC2)C3)n1 | < 1.25 nM
39 | COc1cc2c(cc1C(=O)Nc1cccc(-c3nnnn3[C@H](C)CO)n1)CN(C(C)C)CC2 | < 1.25 nM

The next lines start with the values.

Row | IC50 | Structure (SMILES)
40 | < 1.25 nM | CCNC(=O)N1CCc2cc(F)c(C(=O)Nc3cccc(-c4nncn4[C@H](C)CO)n3)cc2C1
41 | < 1.25 nM | COc1cc2c(cc1C(=O)Nc1cccc(-c3nncn3C(C)C)n1)CN(C(=O)c1ccc(F)cc1)CC2
42 | < 1.25 nM | C[C@H](CO)n1cnnc1-c1cccc(NC(=O)c2cc3c(cc2F)CCN(S(=O)(=O)CCC(F)(F)F)C3)n1
43 | < 1.25 nM | COc1cc2c(cc1C(=O)Nc1cccc(-c3nnnn3C(C)C)n1)CN(C(=O)C(C)(C)C)CC2
44 | < 1.25 nM | C[C@H](CO)n1cnnc1-c1cccc(NC(=O)c2cc3c(cc2F)CCN(C(=O)NC2CCCC2)C3)n1
45 | < 1.25 nM | COc1cc2c(cc1C(=O)Nc1cccc(-c3nnnn3[C@H](C)CO)n1)CN(S(=O)(=O)C1CC1)CC2
46 | < 1.25 nM | COc1cc2c(cc1C(=O)Nc1cccc(-c3nnnn3C(C)C)n1)CN(C(=O)OCc1ccccc1)CC2
47 | < 1.25 nM | CCOC(=O)N1CCc2cc(F)c(C(=O)Nc3cccc(-c4nncn4[C@H](C)CO)n3)cc2C1
48 | < 1.25 nM | COc1cc2c(cc1C(=O)Nc1cccc(-c3nncn3[C@H](C)CO)n1)CN(C)CC2
49 | < 1.25 nM | CCOC(=O)N1CCc2cnc(C(=O)Nc3cccc(-c4nncn4[C@H](C)CO)n3)cc2C1
50 | < 1.25 nM | COc1cc2c(cc1C(=O)Nc1cccc(-c3nnnn3[C@H](C)CO)n1)CN(C(=O)C(C)(C)C)CC2
51 | < 1.25 nM | COc1cc2c(cc1C(=O)Nc1cccc(-c3nncn3[C@H](C)CO)n1)CN(C(=O)OC(C)(C)C)CC2
52 | < 1.25 nM | COc1cc2c(cc1C(=O)Nc1cccc(-c3nncn3C(C)C)n1)CN(C)CC2
53 | < 1.25 nM | CCNC(=O)N1CCc2cc(OC)c(C(=O)Nc3cccc(-c4nncn4C(C)C)n3)cc2C1
54 | < 1.25 nM | COc1cc2c(cc1C(=O)Nc1cccc(-c3nnnn3C(C)C)n1)CN(C(=O)N1CCCC1)CC2
55 | < 1.25 nM | COc1cc2c(cc1C(=O)Nc1cccc(-c3nnnn3[C@H](C)CO)n1)CN(C(=O)OC(C)C)CC2
56 | < 1.25 nM | COc1cc2c(cc1C(=O)Nc1cccc(-c3nnnn3C(C)C)n1)CN(C(=O)OCC(F)(F)F)CC2
57 | < 1.25 nM | CC(C)N1CCc2cc(F)c(C(=O)Nc3cccc(-c4nncn4[C@H](C)CO)n3)cc2C1
58 | < 1.25 nM | C[C@H](CO)n1cnnc1-c1cccc(NC(=O)c2cc3c(cc2F)CCN(C(=O)OCC(F)(F)F)C3)n1
59 | < 1.25 nM | COc1cc2c(cc1C(=O)Nc1cccc(-c3nnnn3[C@H](C)CO)n1)CN(C(=O)c1cnn(C)c1)CC2
60 | < 1.25 nM | COc1cc2c(cc1C(=O)Nc1cccc(-c3nncn3[C@H](C)CO)n1)CN(C(=O)N1CCCC1)CC2
61 | < 1.25 nM | COc1cc2c(cc1C(=O)Nc1cccc(-c3nnnn3[C@H](C)CO)n1)CN(C(=O)OCc1ccccc1)CC2
62 | < 1.25 nM | COc1cc2c(cc1C(=O)Nc1cccc(-c3nncn3C(C)C)n1)CN(C(=O)N1CCCC1)CC2
63 | < 1.25 nM | CCNC(=O)N1CCc2cc(OC)c(C(=O)Nc3cccc(-c4nncn4[C@H](C)CO)n3)cc2C1
64 | < 1.25 nM | C[C@H](CO)n1cnnc1-c1cccc(NC(=O)c2cc3c(cc2F)CCN(C(=O)OCCF)C3)n1

Source: ChEMBL document CHEMBL5729134, “Apoptosis signal-regulating kinase 1 inhibitors and methods of use thereof” (2022)
